Common to all, as to assay type: biochemical
Assay [1] addresses phosphorylated form of full length BTK (active BTK) (Homo sapiens (Human), UniProt Q06187). The assay can be described thus: Mobility shift assay (MSA, Caliper LabChip), active BTK assay. To be noted: Assay type B (MSA using active BTK). The protocol: The active BTK assay consists of phosphorylated form of full length BTK. […] The enzyme inhibitor complexes is incubated, before the kinase activation reaction is initiated.
Mobility Shift Assay (MSA)
The active BTK assay consisted of phosphorylated form of full length BTK. […] The enzyme inhibitor complexes was incubated for 30 minutes at the room temperature and the kinase activation reaction was initiated by the addition of 1 μM Srctide peptide substrate and […].

The target of assay [2] is full-length activated BTK (wildtype) (Homo sapiens (Human), UniProt Q06187). The assay can be described thus: AlphaScreen assay, wild-type BTK.
Assay [3] has as its target full-length activated BTK mutant C481S (Homo sapiens (Human), UniProt Q06187, C481S). The assay can be described thus: AlphaScreen assay, BTK mutant C481S.

Chain of phosphorylated form of full length BTK (active BTK) (Q06187 whole entry): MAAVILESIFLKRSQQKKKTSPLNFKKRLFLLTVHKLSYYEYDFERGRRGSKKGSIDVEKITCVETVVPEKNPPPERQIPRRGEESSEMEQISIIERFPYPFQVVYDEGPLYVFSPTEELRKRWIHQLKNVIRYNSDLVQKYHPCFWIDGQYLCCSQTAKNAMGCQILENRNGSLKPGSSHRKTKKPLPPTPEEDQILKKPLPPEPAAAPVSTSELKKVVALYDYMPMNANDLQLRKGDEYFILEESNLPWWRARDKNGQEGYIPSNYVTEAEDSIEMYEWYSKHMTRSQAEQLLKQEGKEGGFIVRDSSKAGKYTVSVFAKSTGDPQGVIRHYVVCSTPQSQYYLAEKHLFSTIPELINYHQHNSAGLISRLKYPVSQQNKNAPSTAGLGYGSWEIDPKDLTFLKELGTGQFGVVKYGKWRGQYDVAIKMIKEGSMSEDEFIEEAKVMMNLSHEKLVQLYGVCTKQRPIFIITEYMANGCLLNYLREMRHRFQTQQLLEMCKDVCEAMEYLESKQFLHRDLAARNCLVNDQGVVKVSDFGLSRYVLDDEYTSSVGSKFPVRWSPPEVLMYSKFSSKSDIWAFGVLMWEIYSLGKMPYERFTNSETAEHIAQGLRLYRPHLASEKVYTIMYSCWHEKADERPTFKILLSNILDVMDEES
Chain of full-length activated BTK (wildtype) (Q06187 whole entry): as above
Chain of full-length activated BTK mutant C481S (Q06187 whole entry C481S): as the sequence (Q06187 whole entry) above, with C481S counted along it

Regarding `CC(C)(O)C(=O)N[C@H]1CC[C@@H](Nc2ncnc3[nH]cc(C(=O)c4ccccc4Cl)c23)CC1` [Compound I-115, N-(cis-4-((5-(2-chlorobenzoyl)-7H-pyrrolo[2,3-d]pyrimidin-4-yl)amino)cyclohexyl)-2-hydroxy-2-methylpropanamide], in assay [1], the half-maximal inhibitory concentration (IC50) stood at 5.8 nM.

In the case of `CS(=O)(=O)Nc1cccc(C(=O)c2c[nH]c3ncnc(N[C@H]4CC[C@@H](N)CC4)c23)c1` [Compound I-120, N-(3-(4-((cis-4-aminocyclohexyl)amino)-7H-pyrrolo[2,3-d]pyrimidine-5-carbonyl)phenyl)methanesulfonamide], the IC50 in assay [1] was determined as 121 nM.

As for `C[C@H](O)C(=O)N(C)[C@H]1CC[C@@H](Nc2ncnc3[nH]cc(C(=O)c4ccccc4Cl)c23)CC1` [Compound I-106, (S)—N-(cis-4-((5-(2-chlorobenzoyl)-7H-pyrrolo[2,3-d]pyrimidin-4-yl)amino)cyclohexyl)-2-hydroxy-N-methylpropanamide], in assay [1], the IC50 worked out at 4.6 nM.

As for `C[C@@H](O)C(=O)N[C@H]1CC[C@@H](Nc2ncnc3[nH]cc(C(=O)c4ccc(Oc5ccccc5)cc4)c23)CC1` [Compound I-206, (R)-2-hydroxy-N-(cis-4-((5-(4-phenoxybenzoyl)-7H-pyrrolo[2,3-d]pyrimidin-4-yl)amino)cyclohexyl)propanamide], in assay [1], the 50% inhibitory concentration (IC50) worked out at 1.8 nM.

As for `CC(=O)NC[C@@H]1CC[C@@H](Nc2ncnc3[nH]cc(C(=O)c4ccccc4Cl)c23)CO1` [Compound I-118, N-(((2S,5R)-5-((5-(2-chlorobenzoyl)-7H-pyrrolo[2,3-d]pyrimidin-4-yl)amino)tetrahydro-2H-pyran-2-yl)methyl)acetamide], in assay [1], the IC50 came to 4.4 nM.

As to `N[C@H]1CC[C@@H](Nc2ncnc3[nH]cc(C(=O)c4cccc(NS(=O)(=O)c5ccccc5)c4)c23)CC1` [Compound I-121, N-(3-(4-((cis-4-aminocyclohexyl)amino)-7H-pyrrolo[2,3-d]pyrimidine-5-carbonyl)phenyl)benzenesulfonamide], the IC50 in assay [1] came to 7.3 nM.

`CC(=O)NC[C@@H]1CC[C@@H](Nc2ncnc3[nH]cc(C(=O)c4ccccc4C)c23)CO1` [Compound I-119, N-(((2S,5R)-5-((5-(2-methylbenzoyl)-7H-pyrrolo[2,3-d]pyrimidin-4-yl)amino)tetrahydro-2H-pyran-2-yl)methyl)acetamide]: the IC50 in assay [1] was found to be 5.1 nM.

With `CC(C)(C)OC(=O)N[C@H]1C[C@@H](Nc2ncnc3[nH]cc(C(=O)c4ccc(Oc5ccccc5)cc4)c23)C1` [Compound I-186, tert-butyl (cis-3-((5-(4-phenoxybenzoyl)-7H-pyrrolo[2,3-d]pyrimidin-4-yl)amino)cyclobutyl)carbamate], the IC50 in assay [1] was 12 nM.

`O=C(c1ccc(Oc2ccccc2)cc1Cl)c1c[nH]c2ncnc(N[C@H]3CC[C@@H](O)[C@@H](O)C3)c12` (racemic) [Compound I-179, rac-(2-chloro-4-phenoxyphenyl)(4-(((1S,3S,4R)-3,4-dihydroxycyclohexyl)amino)-7H-pyrrolo[2,3-d]pyrimidin-5-yl)methanone]: the IC50 in assay [1] came out at 1.8 nM.

Take `C[C@]1(O)CC[C@H](Nc2ncnc3[nH]cc(C(=O)c4ccc(Oc5ccccc5)cc4Cl)c23)CC1` [Compound I-201, (2-chloro-4-phenoxyphenyl)(4-((trans-4-hydroxy-4-methylcyclohexyl)amino)-7H-pyrrolo[2,3-d]pyrimidin-5-yl)methanone]: the 50% inhibitory concentration (IC50) in assay [1] is 1.5 nM.

Turning to `O=C(c1ccc(Oc2ccccc2)cc1Cl)c1c[nH]c2ncnc(N[C@H]3C[C@H](CO)C3)c12` [Compound I-207, (2-chloro-4-phenoxyphenyl)(4-((trans-3-(hydroxymethyl)cyclobutyl)amino)-7H-pyrrolo[2,3-d]pyrimidin-5-yl)methanone], in assay [1], the IC50 worked out at 4.1 nM.

For the compound `C[C@H](O)C(=O)NC[C@@H]1CC[C@@H](Nc2ncnc3[nH]cc(C(=O)c4ccc(Oc5ccccc5)cc4)c23)CO1` [Compound I-211, (S)-2-hydroxy-N-(((2S,5R)-5-((5-(4-phenoxybenzoyl)-7H-pyrrolo[2,3-d]pyrimidin-4-yl)amino)tetrahydro-2H-pyran-2-yl)methyl)propanamide], the IC50 in assay [1] amounted to 2.9 nM.

Take `N[C@@H]1CC[C@@H](Nc2ncnc3[nH]cc(C(=O)c4ccc(Oc5ccccc5)cc4)c23)C1` [Compound I-189, (4-(((1R,3R)-3-aminocyclopentyl)amino)-7H-pyrrolo[2,3-d]pyrimidin-5-yl)(4-phenoxyphenyl)methanone]: the IC50 in assay [1] was determined as 17 nM.

Take `CC(=O)NC[C@@H]1CC[C@@H](Nc2ncnc3[nH]cc(C(=O)c4ccc(Oc5ccccc5)cc4Cl)c23)CO1` [Compound I-127, N-(((2S,5R)-5-((5-(2-chloro-4-phenoxybenzoyl)-7H-pyrrolo[2,3-d]pyrimidin-4-yl)amino)tetrahydro-2H-pyran-2-yl)methyl)acetamide]: in assay [1], the 50% inhibitory concentration (IC50) is 1.63 nM.

Regarding `CN(C)C[C@]1(O)CC[C@H](Nc2ncnc3[nH]cc(C(=O)c4ccc(Oc5ccccc5)cc4Cl)c23)CC1` [Compound I-177, (2-chloro-4-phenoxyphenyl)(4-((trans-4-((dimethylamino)methyl)-4-hydroxycyclohexyl)amino)-7H-pyrrolo[2,3-d]pyrimidin-5-yl)methanone], the IC50 in assay [1] was 1.7 nM.

Consider `O=C(Nc1ccccc1)c1ccc(Cl)c(C(=O)c2c[nH]c3ncnc(N[C@@H]4CC[C@@H](CO)OC4)c23)c1` [Compound I-631, 4-chloro-3-(4-(((3R,6S)-6-(hydroxymethyl)tetrahydro-2H-pyran-3-yl)amino)-7H-pyrrolo[2,3-d]pyrimidine-5-carbonyl)-N-phenylbenzamide], for which the results for the IC50 in assay [2] and in assay [3] were 52.1 nM and 177 nM, respectively.

With `C=CC(=O)N1CCCC1CNc1ncnc2[nH]cc(C(=O)c3ccc(Oc4ccccc4)cc3Cl)c12` (racemic) [Compound I-325r, (racemic)-1-(2-(((5-(2-chloro-4-phenoxybenzoyl)-7H-pyrrolo[2,3-d]pyrimidin-4-yl)amino)methyl)pyrrolidin-1-yl)prop-2-en-1-one], the IC50 was determined as 0.98 nM in assay [2] and 136 nM in assay [3].

In the case of `CS(=O)(=O)N1CC(Nc2ncnc3[nH]cc(C(=O)c4ccc(Oc5ccccc5)cc4Cl)c23)CCC1CO` (racemic) [Compound I-653, (racemic)-(2-chloro-4-phenoxyphenyl)(4-((6-(hydroxymethyl)-1-(methylsulfonyl)piperidin-3-yl)amino)-7H-pyrrolo[2,3-d]pyrimidin-5-yl)methanone], the half-maximal inhibitory concentration (IC50) in assay [2] is 10 nM; in assay [3], 38.8 nM.

Regarding `O=C(Nc1cccnc1)Nc1ccc(Cl)c(C(=O)c2c[nH]c3ncnc(N[C@@H]4CC[C@@H](CO)OC4)c23)c1` [Compound I-609, 1-(4-chloro-3-(4-(((3R,6S)-6-(hydroxymethyl)tetrahydro-2H-pyran-3-yl)amino)-7H-pyrrolo[2,3-d]pyrimidine-5-carbonyl)phenyl)-3-(pyridin-3-yl)urea], the half-maximal inhibitory concentration (IC50) was 114 nM in assay [2] and 519 nM in assay [3].

Turning to `N#Cc1cccc(NC(=O)c2ccc(C(=O)c3c[nH]c4ncnc(N[C@@H]5CC[C@@H](CO)OC5)c34)c(Cl)c2)c1` [Compound I-614, 3-chloro-N-(3-cyanophenyl)-4-(4-(((3R,6S)-6-(hydroxymethyl)tetrahydro-2H-pyran-3-yl)amino)-7H-pyrrolo[2,3-d]pyrimidine-5-carbonyl)benzamide], the results for the IC50 in assay [2] and in assay [3] were 142 nM and 228 nM, respectively.

These data come from patent publication US11020398B2, “Amino-pyrrolopyrimidinone compounds and methods of use thereof” (ArQule, Inc., priority 2016, dated 2021).
